# In BindingDB's records for doi:10.1021/jm900681h (Amgen, 2009):
# Molecular target: not listed separately
# Experiment: Induction of p53 in human HCT116 cells coexpressing pp53TA-luc assessed as inhibition of cell proliferation after 8 hrs by firefly/renilla luciferase reporter assay
row,SMILES,IC50
1,Cc1ccc2c(c1)C1=C(C(c3ccc(Br)cc3)O2)C(c2ccc(Br)cc2)n2ncnc2N1C (configuration not stated),3 µM
2,"Cc1cc2c(cc1F)OC(c1ccc(Br)cc1)C1=C2N(C)c2ncnn2C1c1ccc(Br)cc1 (racemic) [(+/-)-syn-6,7-Bis(4-bromophenyl)-3-fluoro-2,12-dimethyl-7,12-dihydro-6H-chromeno[4,3-d][1,2,4]triazolo[1,5-a]pyrimidine]",11.4 µM
3,"CN1C2=C(C(c3ccc(Cl)cc3)Oc3ccccc32)C(c2ccc(Cl)cc2)n2ncnc21 (racemic) [(+/-)-syn-6,7-Bis(4-chlorophenyl)-12-methyl-7,12-dihydro-6Hchromeno[4,3-d][1,2,4]triazolo[1,5-a]pyrimidine]",9.37 µM
4,"CN1C2=C(C(c3ccc(Cl)cc3)Oc3ccccc32)C(c2ccc(Br)cc2)n2ncnc21 (racemic) [(+/-)-syn-7-(4-Bromophenyl)-6-(4-chlorophenyl)-12-methyl-7,12-dihydro-6H-chromeno[4,3-d][1,2,4]triazolo[1,5-a]pyrimidine]",15 µM
5,"CCOc1cccc2c1C1=C(C(c3ccc(Br)cc3)O2)C(c2ccc(Br)cc2)n2ncnc2N1C (racemic) [(+/-)-syn-6,7-Bis(4-bromophenyl)-1-ethoxy-12-methyl-7,12-dihydro-6H-chromeno[4,3-d][1,2,4]triazolo[1,5-a]pyrimidine]",6.5 µM
6,"CN1C2=C(C(c3ccc(Br)cc3)Oc3ccc(F)cc32)C(c2ccc(Br)cc2)n2ncnc21 (racemic) [(+/-)-syn-6,7-Bis(4-bromophenyl)-2-fluoro-12-methyl-7,12-dihydro-6H-chromeno[4,3-d][1,2,4]triazolo[1,5-a]pyrimidine]",44.3 µM

# Molecular target: Cellular tumor antigen p53 (Homo sapiens, UniProt P04637)
# Experiment: Induction of p53-Ser15 phosphorylation in human HCT116 cells after 24 hrs
# Sequence of Cellular tumor antigen p53 (P04637 whole entry): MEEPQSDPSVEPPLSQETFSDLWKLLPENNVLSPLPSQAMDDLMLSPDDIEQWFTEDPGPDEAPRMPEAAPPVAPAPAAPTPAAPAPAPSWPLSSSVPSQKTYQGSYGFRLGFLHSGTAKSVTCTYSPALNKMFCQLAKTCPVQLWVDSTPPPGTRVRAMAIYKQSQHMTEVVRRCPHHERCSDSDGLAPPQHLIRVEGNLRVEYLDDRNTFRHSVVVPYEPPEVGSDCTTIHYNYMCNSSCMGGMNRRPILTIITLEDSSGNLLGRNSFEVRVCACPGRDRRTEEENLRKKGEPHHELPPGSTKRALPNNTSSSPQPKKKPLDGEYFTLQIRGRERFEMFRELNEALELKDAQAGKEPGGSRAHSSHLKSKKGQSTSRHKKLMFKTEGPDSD
row,SMILES,IC50
1,Cc1ccc2c(c1)C1=C(C(c3ccc(Br)cc3)O2)C(c2ccc(Br)cc2)n2ncnc2N1C (configuration not stated),1 µM
